Source: paper PMC7412250, “Novel Chrysin-De-Allyl PAC-1 Hybrid Analogues as Anticancer Compounds: Design, Synthesis, and Biological Evaluation” (Molecules, 2020)

Tests used:
[1] = system: MDA-MB-231 cells; experiment: MitoTracker Red / Alexa Fluor 488 annexin V flow cytometry (mitochondrial membrane potential and apoptosis); type: cell-based, human; conditions: for Q2 % of cells (population of cells undergoing apoptosis, quadrant II): 24 h, MitoTracker Red / annexin V, 0 µM control 14.30% (4g), 14.78% (4i); for mitochondrial membrane potential (in words): incubation for 24 h
Protocol: MitoTracker Red and Alexa Fluor 488 annexin V kits for flow cytometry (Molecular Probes Inc., Invitrogen, Eugene, OR) were used to measure the mitochondrial membrane potential and apoptosis in MDA-MB-231 cells. […] The cells were then […] using 0.05% trypsin, 2.21 mM EDTA, 1×, counted, and 4 μL of 10 μM of the MitoTracker Red working solution were added to 1 mL of the harvested cells. The cells were incubated at 37 °C with 5% CO2 for 30 min. The cells were washed once with PBS and resuspended in 100 μL of the annexin binding buffer. The cell suspensions were incubated with 5 μL of Alexa Fluor 488 annexin V for 15 min. This was followed by the addition of 400 μL of the annexin-binding buffer. Finally, flow cytometry was used to detect the fluorescence of stained cells at the following excitation/emission maxima: Alexa Fluor® 488 annexin V: 499/521 nm; MitoTracker® Red: 579/599 nm with the BD Accuri™ C6 flow cytometer from BD Biosciences (Becton-Dickinson, San Jose, CA, USA) and analyzed using FCS express 5 plus De Novo software (Glendale, CA, USA).

[2] = system: HCT116; experiment: MTT cytotoxicity assay, HCT116; type: cell-based; conditions: Homo sapiens, HCT-116, mean ± SEM of three independent experiments in triplicate, read-out: IC50 Colon Cancer HCT116
Protocol: (§1) A panel of cancer cell lines, including breast (MDA-MB-231, BT20), brain (U251), and colon (HCT116), as well as a normal cell line (human mammary epithelial cells: HMECs), were grown as adherent monolayers in flasks with Dulbecco’s Modified Eagle Medium (DMEM), supplemented with 10% fetal bovine serum (FBS) and 1% penicillin and streptomycin in a humidified incubator with 5% CO2 at 37 °C.
(§2) The (3-(4,5-dimethylthiazol-2-yl)-2,5-diphenyltetrazolium bromide) (MTT) assay was used to determine the cytotoxicity of the 15 chrysin derivatives in the above-mentioned cell lines. Briefly, cells were harvested with 0.05% trypsin, 2.21 mM ethylenediaminetetraacetic acid (EDTA), 1× from Corning (Corning, NY, USA), and suspended at a final density of 5 × 10^3 cells/well. Cells were seeded (180 μL/well) into 96-well plates. Initially, four different concentrations of each compound were added to find the compounds with the greatest antiproliferative efficacy in the MDA-MB-231 cell line (0, 1, 10, and 100 μM). Subsequently, […] different concentrations […] of each compound were added to the remaining cell lines mentioned above. After 68 h of incubation, 20 μL of the MTT solution (4 mg/mL) were added to each well, and the plates were incubated for 4 h. This allowed viable cells to biotransform the yellow-colored MTT into dark-blue formazan crystals. Subsequently, the medium was discarded, and 150 μL of DMSO were added to each well to dissolve the formazan crystals. The absorbance was determined at 590 nm using a DTX 880 multimode detector (Beckman Coulter life sciences, IN, USA). The IC50 ± SD concentrations were calculated from three experiments performed in triplicate/duplicate. The IC50 values were calculated from the cell survival percentages obtained for each compound tested at different concentrations. Similarly, the cytotoxicity of the test compounds was compared to the normal cell line (HMEC).

[3] = system: MDA-MB-231 cells; experiment: Cell cycle analysis by PI flow cytometry; type: cell-based, human; conditions: 24 h, vehicle 4.46%
Protocol: MDA-MB-231 cells were plated into 6-well plates at 2.5 × 10^5 cells/well. […] Next, the cells were trypsinized with 0.05% trypsin, 2.21 mM EDTA, 1×, washed, counted, and resuspended in 1 mL of ice-cold PBS. The cells then were stained with propidium iodide (PI) dye and incubated for at least 15 min. The distribution of the cells in each cell cycle phase for the different concentrations was measured using a BD Accuri™ C6 flow cytometer from BD Biosciences (Becton-Dickinson, San Jose, CA, USA) and analyzed using FCS Express 5 plus De Novo software (Glendale, CA, USA).

[4] = system: U-251; experiment: MTT cytotoxicity assay, U-251; type: cell-based; conditions: Homo sapiens, mean ± SEM of three independent experiments in triplicate, read-out: IC50 Brain Cancer U-251
Protocol: as §1, §2

[5] = system: MDA-MB-231 cells; experiment: Western blot of apoptotic proteins (Bak, cytochrome c, caspase-7, caspase-9, mTOR); type: cell-based, human; conditions: for cleavage of the initiator caspase, caspase 9 / expression of cytochrome c / caspase 7 activation: compared to vehicle; for mTOR expression: 5 or 10 µM; for expression of Bak: compared to cells incubated in the absence of lead compounds
Protocol: To measure the expression of Bak, cytochrome c, caspase-7, caspase-9, and mTOR, Western blotting was performed by lysing MDA-MB-231 cells using a lysis buffer (50 mM Tris–HCl, 150 mM NaCl, 1 mM EDTA, 0.5% NP-40, 1% Triton, 0.1% SDS) containing a protease inhibitor cocktail that consisted of Aprotinin, Bestatin, E-64, Leupeptin, and Pepstatin A (Sigma-Aldrich Life Science, St. Louis, MO, USA). The bicinchoninic acid (BCA) quantification assay was used to determine the protein levels in the cell extracts (G-BIOSCIENCES, St. Louis, MO, USA). The extracted proteins were loaded onto a 10–20% tris-glycine gel. After separation, the proteins were transferred from the gel onto a polyvinylidene difluoride (PVDF) membrane. The membranes were blocked using 5% milk in Tris-buffered saline Tween 20 for 30 min and incubated overnight with primary antibodies against Bak (1:1000), cytochrome C (1:1000), caspase-3 (1:1000), caspase 7 (1:1000), caspase 9 (1:1000), mTOR (1:1000), or B-actin (1:2000) in 5% BSA (bovine serum albumin) at 4 °C. The next day, membranes were washed and incubated with horseradish peroxidase-labelled (HRP) anti-rabbit secondary antibody (1:5000 dilutions). The membrane was incubated with the antibody for an additional 1 h. Subsequently, the membranes were washed and developed by Clarity Western ECL substrate (Bio-Rad; Hercules, CA, USA). Protein was detected using a ChemiDoc Imaging System (Bio-Rad). Densitometry analyses of the blots for the detected protein were quantified using the ImageJ software. Data was calculated as ratios of protein/β-actin.

[6] = system: BT-20, U-251, and HCT116; experiment: MTT cytotoxicity assay, three cancer cell lines stated together; type: cell-based; conditions: range across the three cancer cell lines, read-out: IC50 values, range over BT-20, U-251 and HCT116
Protocol: as §1
The (3-(4,5-dimethylthiazol-2-yl)-2,5-diphenyltetrazolium bromide) (MTT) assay was used to determine the cytotoxicity of the 15 chrysin derivatives in the above-mentioned cell lines. Briefly, cells were harvested with 0.05% trypsin, 2.21 mM ethylenediaminetetraacetic acid (EDTA), 1× from Corning (Corning, NY, USA), and suspended at a final density of 5 × 10^3 cells/well. Cells were seeded (180 μL/well) into 96-well plates. Initially, four different concentrations of each compound were added to find the compounds with the greatest antiproliferative efficacy in the MDA-MB-231 cell line (0, 1, 10, and 100 μM). […] The absorbance was determined at 590 nm using a DTX 880 multimode detector (Beckman Coulter life sciences, IN, USA). The IC50 ± SD concentrations were calculated from three experiments performed in triplicate/duplicate. The IC50 values were calculated from the cell survival percentages obtained for each compound tested at different concentrations. […]

SMILES	Q2 % of cells (population of cells undergoing apoptosis, quadrant II) ([1]; 5 µM)	Q2 % of cells (population of cells undergoing apoptosis, quadrant II) ([1]; 10 µM)	mitochondrial membrane potential (in words) [1]	IC50 [2]	% of cells in G2 phase ([3]; 5 µM)	% of cells in G2 phase ([3]; 10 µM)	IC50 [4]	cleavage of the initiator caspase, caspase 9 ([5]; 5 µM)	expression of cytochrome c ([5]; 5 µM)	mTOR expression [5]	caspase 7 activation ([5]; both concentrations (5 and 10 µM))	expression of Bak [5]	caspase 7 activation ([5]; 10 µM)	cleavage of the initiator caspase, caspase 9 ([5]; 10 µM)	expression of cytochrome c ([5]; 10 µM)	IC50 [6]
O=C(COc1cc(O)c2c(=O)cc(-c3ccccc3)oc2c1)N/N=C/c1ccc(O)cc1O [Compound 4g, (E,Z)-N’-(2,4-Dihydroxybenzylidene)-2-((5-hydroxy-4-oxo-2-phenyl-4H-chromen-7-yl)oxy)acetohydrazide]	26.56%	58.05%	significant loss of the mitochondrial membrane potential	2.68 ± 0.15 µM	59.12%	54.13%	7.64 ± 0.11 µM	significant cleavage	significant increase	no significant change	activated caspase 7	increase	–	–	–	–
O=C(COc1cc(O)c2c(=O)cc(-c3ccccc3)oc2c1)N/N=C/c1ccc(O)c(O)c1O [Compound 4i, (E,Z)-2-((5-Hydroxy-4-oxo-2-phenyl-4H-chromen-7-yl)oxy)-N’-(2,3,4-trihydroxybenzylidene)acetohydrazide]	32.25%	42.56%	significant loss of the mitochondrial membrane potential	20.09 ± 0.13 µM	–	–	25.4 ± 7.53 µM	–	–	no significant change	–	increase	activated caspase 7	significant cleavage	significant increase	10 to 25 µM
